Results on 25 compounds are retold here after US7683069B2, “3-substituted-4-pyrimidone derivatives” (Mitsubishi Tanabe Pharma Corporation, priority 2002, dated 2010).

The target in the test is T1, bovine cerebral TPK1 (Bos taurus, UniProt A0A3Q1MT31).
T1 construct: bovine cerebral TPK1; from tissue; host or cells: bovine brain (cerebrum)
As to the kind of experiment: Inhibitory activity against P-GS1 phosphorylation by bovine cerebral TPK1. Format: biochemical. Particulars: 41.7 μM [γ-32P] ATP, 25° C., 2 hours, pH 6.5. The protocol: Inhibitory Activity of the Medicament of the Present Invention Against P-GS1 Phosphorylation by Bovine Cerebral TPK1
A mixture containing 100 mM MES-sodium hydroxide (pH 6.5), 1 mM magnesium acetate, 0.5 mM EGTA, 5 mM β-mercaptoethanol, 0.02% Tween 20, 10% glycerol, 12 μg/ml P-GS1, 41.7 μM [γ-^32P] ATP (68 kBq/ml), bovine cerebral TPK1 and a compound shown in Table (a final mixture contained 1.7% DMSO deriving from a solution of a test compound prepared in the presence of 10% DMSO) was used as a reaction system. The phosphorylation was started by adding ATP, and the reaction was conducted at 25° C. for 2 hours, and then stopped by adding 21% perchloric-acid on ice cooling. The reaction mixture was centrifuged at 12,000 rpm for 5 minutes and adsorbed on P81 paper (Whatmann), and then the paper was washed four times with 75 mM phosphoric acid, three times with water and once with acetone. The paper was dried, and the residual radioactivity was measured using a liquid scintillation counter.

T1 sequence (A0A3Q1MT31 1-419): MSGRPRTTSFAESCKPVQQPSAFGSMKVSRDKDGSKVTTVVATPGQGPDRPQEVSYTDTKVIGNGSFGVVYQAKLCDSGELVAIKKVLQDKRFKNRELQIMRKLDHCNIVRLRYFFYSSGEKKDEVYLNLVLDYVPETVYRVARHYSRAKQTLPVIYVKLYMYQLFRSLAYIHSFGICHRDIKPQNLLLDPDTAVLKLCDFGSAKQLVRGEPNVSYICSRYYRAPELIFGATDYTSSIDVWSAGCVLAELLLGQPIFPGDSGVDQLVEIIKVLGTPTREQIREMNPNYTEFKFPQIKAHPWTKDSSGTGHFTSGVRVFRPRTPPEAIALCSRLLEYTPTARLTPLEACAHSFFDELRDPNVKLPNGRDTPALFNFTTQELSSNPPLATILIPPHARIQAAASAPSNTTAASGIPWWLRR

As usually defined, the IC50 is the concentration that inhibits the measured activity by half. Turning to `Cn1c(N2CCC=C(c3ccccc3)C2)nc(-c2ccncc2)cc1=O` [Compound A001, 2-(5-phenyl-3,6-dihydro-2H-pyridin-1-yl)-3-methyl-6-pyridin-4-yl-3H-pyrimidin-4-one], inhibition was half-maximal at 7 nM (IC50). That is a single-digit nanomolar value.

For the compound `Cn1c(N2CCC=C(c3ccccc3C(F)(F)F)C2)nc(-c2ccncn2)cc1=O` [Compound B027, 2-[5-(2-trifluoromethylphenyl)-3,6-dihydro-2H-pyridin-1-yl]-3-methyl-6-pyrimidin-4-yl-3H-pyrimidin-4-one], half-maximal inhibition (IC50) was put at 2.6 nM.

The compound `Cn1c(N2CCC=C(c3noc4ccccc34)C2)nc(-c2ccncn2)cc1=O` [Compound B049, 2-[5-(benzisoxazole-3-yl)-3,6-dihydro-2H-pyridin-1-yl]-3-methyl-6-pyrimidin-4-yl-3H-pyrimidin-4-one] yielded an IC50 of 5.1 nM.

`Cn1c(N2CCC=C(c3ccccc3F)C2)nc(-c2ccncn2)cc1=O` [Compound B002, 2-[5-(2-fluorophenyl)-3,6-dihydro-2H-pyridin-1-yl]-3-methyl-6-pyrimidin-4-yl-3H-pyrimidin-4-one] displayed an IC50 of 1.1 nM.

On to `Cn1c(N2CCC=C(COc3ccc(F)cc3)C2)nc(-c2ccncc2)cc1=O` [Compound A056, 2-[5-(4-fluorophenoxymethyl)-3,6-dihydro-2H-pyridin-1-yl]-3-methyl-6-pyridin-4-yl-3H-pyrimidin-4-one], for which the IC50 is 27 nM. Against the preceding compound, the IC50 is about 25-fold higher.

Compound `Cn1c(N2CCC=C(c3ccc(C(=O)N4CCCC4)cc3)C2)nc(-c2ccncc2)cc1=O` [Compound A057, 2-[5-(4-pyrrolidinylcarbonylphenyl)-3,6-dihydro-2H-pyridin-1-yl]-3-methyl-6-pyridin-4-yl-3H-pyrimidin-4-one] gave an IC50 of 24 nM.

Consider `COc1ccc(C2=CCCN(c3nc(-c4ccncn4)cc(=O)n3C)C2)cc1` [Compound B022, 2-[5-(4-methoxyphenyl)-3,6-dihydro-2H-pyridin-1-yl]-3-methyl-6-pyrimidin-4-yl-3H-pyrimidin-4-one], for which inhibition was half-maximal at 7.7 nM (IC50).

In the case of `COc1ccccc1C1=CCCN(c2nc(-c3ccncc3)cc(=O)n2C)C1` [Compound A020, 2-[5-(2-methoxyphenyl)-3,6-dihydro-2H-pyridin-1-yl]-3-methyl-6-pyridin-4-yl-3H-pyrimidin-4-one], the IC50 was 5 nM.

The compound `COc1cccc(OC)c1C1=CCCN(c2nc(-c3ccncn3)cc(=O)n2C)C1` [Compound B026, 2-[5-(2,6-dimethoxyphenyl)-3,6-dihydro-2H-pyridin-1-yl]-3-methyl-6-pyrimidin-4-yl-3H-pyrimidin-4-one] displayed an IC50 of 2.4 nM.

For `Cn1c(N2CCC=C(c3ccc(C(=O)N4CCCC4)cc3)C2)nc(-c2ccncn2)cc1=O` [Compound B057, 2-[5-(4-pyrrolidinylcarbonylphenyl)-3,6-dihydro-2H-pyridin-1-yl]-3-methyl-6-pyrimidin-4-yl-3H-pyrimidin-4-one], half-maximal inhibition (IC50) was put at 6.8 nM. This IC50 lies about 2.8-fold higher than the previous one.

`COc1cccc(OC)c1C1=CCCN(c2nc(-c3ccncc3)cc(=O)n2C)C1` [Compound A026, 2-[5-(2,6-dimethoxyphenyl)-3,6-dihydro-2H-pyridin-1-yl]-3-methyl-6-pyridin-4-yl-3H-pyrimidin-4-one]: half-maximal inhibition (IC50) required 16 nM.

Regarding `COc1ccc(C2=CCCN(c3nc(-c4ccncc4)cc(=O)n3C)C2)cc1` [Compound A022, 2-[5-(4-methoxyphenyl)-3,6-dihydro-2H-pyridin-1-yl]-3-methyl-6-pyridin-4-yl-3H-pyrimidin-4-one], half-maximal inhibition (IC50) required 8.7 nM. This IC50 is about 1.8-fold lower than that of the compound before.

As for `Cn1c(N2CCC=C(c3ccsc3)C2)nc(-c2ccncn2)cc1=O` [Compound B043, 2-(5-thiophen-3-yl-3,6-dihydro-2H-pyridin-1-yl)-3-methyl-6-pyrimidin-4-yl-3H-pyrimidin-4-one], the IC50 worked out at 17 nM.

Regarding `Cn1c(N2CCC=C(c3ccccc3-c3ccccc3)C2)nc(-c2ccncn2)cc1=O` [Compound B033, 2-(5-biphenyl-2-yl-3,6-dihydro-2H-pyridin-1-yl)-3-methyl-6-pyrimidin-4-yl-3H-pyrimidin-4-one], the IC50 was determined as 17 nM.

`Cn1c(N2CCC=C(c3ccc(F)cc3F)C2)nc(-c2ccncn2)cc1=O` [Compound B012, 2-[5-(2,4-difluorophenyl)-3,6-dihydro-2H-pyridin-1-yl]-3-methyl-6-pyrimidin-4-yl-3H-pyrimidin-4-one]: the midpoint of inhibition, the IC50, lay at 3.9 nM.

`Cn1c(N2CCC=C(c3cccs3)C2)nc(-c2ccncn2)cc1=O` [Compound B044, 2-(5-thiophen-2-yl-3,6-dihydro-2H-pyridin-1-yl)-3-methyl-6-pyrimidin-4-yl-3H-pyrimidin-4-one] showed an IC50 of 9 nM.

For the compound `Cn1c(N2CCC=C(Cc3ccccc3)C2)nc(-c2ccncc2)cc1=O` [Compound A050, 2-(5-benzyl-3,6-dihydro-2H-pyridin-1-yl)-3-methyl-6-pyridin-4-yl-3H-pyrimidin-4-one], inhibition was half-maximal at 8 nM (IC50).

For the compound `Cn1c(N2CCC=C(c3ccccc3)C2)nc(-c2ccncn2)cc1=O` [Compound B001, 2-(5-phenyl-3,6-dihydro-2H-pyridin-1-yl)-3-methyl-6-pyrimidin-4-yl-3H-pyrimidin-4-one], the IC50 worked out at 6.5 nM.

With `Cn1c(N2CCC=C(c3ccc(F)cc3)C2)nc(-c2ccncc2)cc1=O` [Compound A004, 2-[5-(4-fluorophenyl)-3,6-dihydro-2H-pyridin-1-yl]-3-methyl-6-pyridin-4-yl-3H-pyrimidin-4-one], the midpoint of inhibition, the IC50, lay at 13 nM.

As for `Cn1c(N2CCC=C(c3ccccc3Cl)C2)nc(-c2ccncn2)cc1=O` [Compound B005, 2-[5-(2-chlorophenyl)-3,6-dihydro-2H-pyridin-1-yl]-3-methyl-6-pyrimidin-4-yl-3H-pyrimidin-4-one], inhibition was half-maximal at 0.38 nM (IC50).

For `Cn1c(N2CCC=C(c3ccc(F)cc3)C2)nc(-c2ccncn2)cc1=O` [Compound B004, 2-[5-(4-fluorophenyl)-3,6-dihydro-2H-pyridin-1-yl]-3-methyl-6-pyrimidin-4-yl-3H-pyrimidin-4-one], it took 6.3 nM to reach half-maximal inhibition (IC50). This IC50 lies about 17-fold higher than the previous one.

On to `Cn1c(N2CCC=C(c3ccccc3F)C2)nc(-c2ccncc2)cc1=O` [Compound A002, 2-[5-(2-fluorophenyl)-3,6-dihydro-2H-pyridin-1-yl]-3-methyl-6-pyridin-4-yl-3H-pyrimidin-4-one], for which the IC50 worked out at 1.2 nM.

In turn, `Cn1c(N2CCC=C(c3ccc(F)cc3F)C2)nc(-c2ccncc2)cc1=O` [Compound A012, 2-[5-(2,4-difluorophenyl)-3,6-dihydro-2H-pyridin-1-yl]-3-methyl-6-pyridin-4-yl-3H-pyrimidin-4-one] showed an IC50 of 17 nM.

For `Cn1c(N2CCC=C(c3ccccc3C(F)(F)F)C2)nc(-c2ccncc2)cc1=O` [Compound A027, 2-[5-(2-trifluoromethylphenyl)-3,6-dihydro-2H-pyridin-1-yl]-3-methyl-6-pyridin-4-yl-3H-pyrimidin-4-one], the IC50 came out at 31 nM.

Compound `Cn1c(N2CCC=C(c3ccc(Cl)cc3Cl)C2)nc(-c2ccncn2)cc1=O` [Compound B017, 2-[5-(2,4-dichlorophenyl)-3,6-dihydro-2H-pyridin-1-yl]-3-methyl-6-pyrimidin-4-yl-3H-pyrimidin-4-one] came in with an IC50 of 5.6 nM.
